Assay results from the Kinase Knowledgebase extract (Sharma et al. 2016).

Target: PIK3CG (human) (UniProt P48736)
Experiment: Assessment of PIK3CG Kinase Activity

Chain of PIK3CG (human) (P48736 whole entry, looked up): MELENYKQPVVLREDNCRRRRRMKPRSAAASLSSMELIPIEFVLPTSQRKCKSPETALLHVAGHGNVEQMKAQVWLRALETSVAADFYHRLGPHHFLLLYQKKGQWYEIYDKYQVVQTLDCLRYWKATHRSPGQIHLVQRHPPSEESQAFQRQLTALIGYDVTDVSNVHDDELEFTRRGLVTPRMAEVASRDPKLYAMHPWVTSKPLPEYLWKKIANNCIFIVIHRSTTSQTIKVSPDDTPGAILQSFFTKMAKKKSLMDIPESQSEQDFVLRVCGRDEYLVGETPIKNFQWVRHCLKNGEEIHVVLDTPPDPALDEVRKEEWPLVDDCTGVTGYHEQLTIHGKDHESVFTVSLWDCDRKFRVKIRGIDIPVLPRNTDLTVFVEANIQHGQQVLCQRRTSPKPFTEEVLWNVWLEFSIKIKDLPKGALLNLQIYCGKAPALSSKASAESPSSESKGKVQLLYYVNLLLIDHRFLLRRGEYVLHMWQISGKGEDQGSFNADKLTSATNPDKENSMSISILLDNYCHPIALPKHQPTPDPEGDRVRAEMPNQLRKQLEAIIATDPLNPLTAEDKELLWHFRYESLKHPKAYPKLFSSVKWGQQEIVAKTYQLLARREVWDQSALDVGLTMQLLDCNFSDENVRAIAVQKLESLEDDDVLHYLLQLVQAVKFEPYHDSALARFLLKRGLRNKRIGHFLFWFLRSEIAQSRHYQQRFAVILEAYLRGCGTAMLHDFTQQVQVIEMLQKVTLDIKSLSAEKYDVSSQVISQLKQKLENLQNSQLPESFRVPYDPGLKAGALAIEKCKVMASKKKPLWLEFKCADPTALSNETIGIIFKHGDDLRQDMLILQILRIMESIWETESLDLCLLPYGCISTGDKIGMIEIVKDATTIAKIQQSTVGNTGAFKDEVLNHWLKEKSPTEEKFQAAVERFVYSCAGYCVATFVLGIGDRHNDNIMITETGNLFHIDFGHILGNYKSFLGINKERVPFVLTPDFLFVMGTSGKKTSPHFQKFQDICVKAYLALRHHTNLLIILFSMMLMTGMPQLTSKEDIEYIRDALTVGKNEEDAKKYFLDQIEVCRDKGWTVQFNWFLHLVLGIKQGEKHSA

SMILES | IC50
CC(=O)Nc1nc2c(s1)-c1nc(-c3cc(C#CCN4CCC(N(C)C)CC4)ccc3Cl)ncc1CC2 | < 600 nM
CC(=O)Nc1nc2c(s1)-c1nc(-c3cc(C#CCN(C)S(C)(=O)=O)ccc3Cl)ncc1CC2 | < 600 nM
CC(=O)Nc1nc2c(s1)-c1nc(-c3cc(C#CCCN4CCOCC4)ccc3Cl)ncc1CC2 | < 600 nM
CC(=O)Nc1nc2c(s1)-c1nc(-c3cc(C#CCN4CC[S+]([O-])CC4)ccc3Cl)ncc1CC2 | < 600 nM
CC(=O)Nc1nc2c(s1)-c1nc(-c3cccc(C#CC4CCN(C5CCCC5)CC4)c3)ncc1CC2 | < 600 nM
CCN(C)S(=O)(=O)NCC#Cc1ccc(Cl)c(-c2ncc3c(n2)-c2sc(NC(C)=O)nc2CC3)c1 | < 600 nM
CC(=O)Nc1nc2c(s1)-c1nc(-c3cc(C#CCNC(=O)NC(C)C)ccc3Cl)ncc1CC2 | < 600 nM
CC(=O)Nc1nc2c(s1)-c1nc(-c3cc(C#CCNS(=O)(=O)C4CCCCC4)ccc3Cl)ncc1CC2 | < 600 nM
CC(=O)Nc1nc2c(s1)-c1nc(-c3cc(C#CCn4ccnc4)ccc3Cl)ncc1CC2 | < 600 nM
CNC(=O)NC1(C#Cc2ccc(Cl)c(-c3ncc4c(n3)-c3sc(NC(C)=O)nc3CC4)c2)CCCCC1 | < 600 nM
CC(=O)Nc1nc2c(s1)-c1nc(-c3cc(C#CCN4CCC(C(N)=O)CC4)ccc3Cl)ncc1CC2 | < 600 nM
CC(=O)Nc1nc2c(s1)-c1nc(-c3cc(C#CCN(C)C(=O)C(C)C)ccc3Cl)ncc1CC2 | < 600 nM
CC(=O)Nc1nc2c(s1)-c1nc(-c3cc(C#CCCN(C)C(C)=O)ccc3Cl)ncc1CC2 | < 600 nM
CC(=O)Nc1nc2c(s1)-c1nc(-c3cc(C#CC4(O)CCN(C5CCCC5)CC4)ccc3Cl)ncc1CC2 | < 600 nM
CC(=O)Nc1nc2c(s1)-c1nc(-c3cccc(C#CC4(O)CCN(C(C)C)CC4)c3)ncc1CC2 | < 600 nM
CC(=O)Nc1nc2c(s1)-c1nc(-c3cc(C#CCCN4CCCCC4)ccc3Cl)ncc1CC2 | < 600 nM
CNC(=O)Nc1nc2c(s1)-c1nc(-c3cc(C#CC4(O)CCN(C5CCCC5)CC4)ccc3Cl)ncc1CC2 | < 600 nM
CC(=O)Nc1nc2c(s1)-c1nc(-c3cc(C#CCN4CCN(C(C)=O)CC4)ccc3Cl)ncc1CC2 | < 600 nM
CC(=O)Nc1nc2c(s1)-c1nc(-c3cc(Cl)cc(C#CCNS(C)(=O)=O)c3)ncc1CC2 | < 600 nM
CC(=O)Nc1nc2c(s1)-c1nc(-c3cc(C#CCCCN4CCOCC4)ccc3Cl)ncc1CC2 | < 600 nM
CC(=O)Nc1nc2c(s1)-c1nc(-c3cc(C#CCNCC4CC4)ccc3Cl)ncc1CC2 | < 600 nM
CC(=O)Nc1nc2c(s1)-c1nc(-c3cccc(C#CCNC(=O)CC(C)(C)C)c3)ncc1CC2 | < 600 nM
CC(=O)Nc1nc2c(s1)-c1nc(-c3cc(C#CCNS(=O)(=O)C(F)(F)F)ccc3Cl)ncc1CC2 | < 600 nM
CC(=O)Nc1nc2c(s1)-c1nc(-c3cc(C#CC4CCN(C(=O)NC(C)(C)C)CC4)ccc3Cl)ncc1CC2 | < 600 nM
CC(=O)Nc1nc2c(s1)-c1nc(-c3cc(C#CCN4CCN(C)CC4)ccc3Cl)ncc1CC2 | < 600 nM
CCNC(=O)NCC#Cc1ccc(Cl)c(-c2ncc3c(n2)-c2sc(NC(C)=O)nc2CC3)c1 | < 600 nM

SMILES | IC50
CC(=O)Nc1nc2c(s1)-c1nc(-c3cc(C#CCNS(C)(=O)=O)ccc3Cl)ncc1CC2 | < 600 nM
CC(=O)Nc1nc2c(s1)-c1nc(-c3cc(C#CCNC4CCN(C)CC4)ccc3Cl)ncc1CC2 | < 600 nM
CC(=O)Nc1nc2c(s1)-c1nc(-c3cc(C#CC4(NC(C)=O)CCCCC4)ccc3Cl)ncc1CC2 | < 600 nM
CC(=O)Nc1nc2c(s1)-c1nc(-c3cc(C#CCN(C)C)ccc3Cl)ncc1CC2 | < 600 nM
CC(=O)Nc1nc2c(s1)-c1nc(-c3cc(C#CC4CCN(C(=O)C(C)C)CC4)ccc3Cl)ncc1CC2 | < 600 nM
CC(=O)Nc1nc2c(s1)-c1nc(-c3cccc(C#CC4CCN(C)CC4)c3)ncc1CC2 | < 600 nM
CC(=O)Nc1nc2c(s1)-c1nc(-c3cc(C#CCNC(=O)N(C)C)ccc3Cl)ncc1CC2 | < 600 nM
CC(=O)Nc1nc2c(s1)-c1nc(-c3cc(C#CCN(C)S(=O)(=O)N4CCOCC4)ccc3Cl)ncc1CC2 | < 600 nM
CC(=O)Nc1nc2c(s1)-c1nc(-c3cc(C#CC4CCNCC4)ccc3Cl)ncc1CC2 | < 600 nM
CC(=O)Nc1nc2c(s1)-c1nc(-c3cc(C#CCNS(=O)(=O)N(C)C)ccc3Cl)ncc1CC2 | < 600 nM
CC(=O)Nc1nc2c(s1)-c1nc(-c3cc(C#CC4(O)CCN(C(C)C)CC4)ccc3F)ncc1CC2 | < 600 nM
COCC#Cc1ccc(Cl)c(-c2ncc3c(n2)-c2sc(NC(C)=O)nc2CC3)c1 | < 600 nM
CC(=O)Nc1nc2c(s1)-c1nc(-c3cc(C#C[C@@H]4CCCN4)ccc3Cl)ncc1CC2 | < 600 nM
CC(=O)Nc1nc2c(s1)-c1nc(-c3cc(C#CCNS(=O)(=O)c4ccoc4)ccc3Cl)ncc1CC2 | < 600 nM
CC(=O)Nc1nc2c(s1)-c1nc(-c3cc(C#CCN(C)S(=O)(=O)N4CCCC4)ccc3Cl)ncc1CC2 | < 600 nM
CC(=O)Nc1nc2c(s1)-c1nc(-c3cc(C#CCN(C)S(=O)(=O)N(C)C)ccc3Cl)ncc1CC2 | < 600 nM
CC(=O)Nc1nc2c(s1)-c1nc(-c3cc(C#CC4CCN(S(=O)(=O)C(C)C)CC4)ccc3Cl)ncc1CC2 | < 600 nM
CC(=O)Nc1nc2c(s1)-c1nc(-c3cc(C#Cc4ccccc4)ccc3Cl)ncc1CC2 | < 600 nM
CC(=O)Nc1nc2c(s1)-c1nc(-c3cc(C#CCCCN4CCCC4)ccc3Cl)ncc1CC2 | < 600 nM
CC(=O)Nc1nc2c(s1)-c1nc(-c3cc(C#CC4CCN(S(C)(=O)=O)CC4)ccc3Cl)ncc1CC2 | < 600 nM
CC(=O)Nc1nc2c(s1)-c1nc(-c3cc(C#CCN4CCN(C(C)C)CC4)ccc3Cl)ncc1CC2 | < 600 nM
CC(=O)Nc1nc2c(s1)-c1nc(-c3cc(C#CC4CCN(C(=O)N5CCOCC5)CC4)ccc3Cl)ncc1CC2 | < 600 nM
CC(=O)Nc1nc2c(s1)-c1nc(-c3cc(C#CCNC(C)C)ccc3Cl)ncc1CC2 | < 600 nM
CC(=O)Nc1nc2c(s1)-c1nc(-c3cccc(C#CCNC(=O)C4CCN(C)CC4)c3)ncc1CC2 | < 600 nM
CC(=O)Nc1nc2c(s1)-c1nc(-c3cc(C#CCCN4CCN(C)CC4)ccc3Cl)ncc1CC2 | < 600 nM

Next, values leading:

IC50 | SMILES
< 600 nM | CC(=O)Nc1nc2c(s1)-c1nc(-c3cc(C#CC4(N)CCCCC4)ccc3Cl)ncc1CC2
< 600 nM | CCS(=O)(=O)NCC#Cc1ccc(Cl)c(-c2ncc3c(n2)-c2sc(NC(C)=O)nc2CC3)c1
< 600 nM | CC(=O)Nc1nc2c(s1)-c1nc(-c3cc(C#CCC4CCCC4)ccc3Cl)ncc1CC2
< 600 nM | CCNC(=O)N1CCC(C#Cc2ccc(Cl)c(-c3ncc4c(n3)-c3sc(NC(C)=O)nc3CC4)c2)CC1
< 600 nM | CC(=O)Nc1nc2c(s1)-c1nc(-c3cc(Cl)cc(C#CC4CCN(C5CCCC5)CC4)c3)ncc1CC2
< 600 nM | CC(=O)NCC#Cc1cccc(-c2ncc3c(n2)-c2sc(NC(C)=O)nc2CC3)c1
< 600 nM | CC(=O)Nc1nc2c(s1)-c1nc(-c3cc(C#CCNS(=O)(=O)C4CC4)ccc3Cl)ncc1CC2
< 600 nM | CC(=O)Nc1nc2c(s1)-c1nc(-c3cc(C#CC4(O)CCN(C)CC4)ccc3Cl)ncc1CC2
< 600 nM | CC(=O)Nc1nc2c(s1)-c1nc(-c3cccc(C#CC4(O)CCN(C)CC4)c3)ncc1CC2
< 600 nM | CC(=O)Nc1nc2c(s1)-c1nc(-c3cc(C#CC4CCN(C(=O)NCC5CCCCC5)CC4)ccc3Cl)ncc1CC2
< 600 nM | CC(=O)Nc1nc2c(s1)-c1nc(-c3cc(C#CC4(N(C)C)CCCCC4)ccc3Cl)ncc1CC2
< 600 nM | CC(=O)Nc1nc2c(s1)-c1nc(-c3cc(C#CCN4CCCC4)ccc3Cl)ncc1CC2
< 600 nM | CC(=O)Nc1nc2c(s1)-c1nc(-c3cc(C#CCNS(N)(=O)=O)ccc3Cl)ncc1CC2
< 600 nM | CC(=O)Nc1nc2c(s1)-c1nc(-c3cc(C#CC4CCN(S(=O)(=O)C5CC5)CC4)ccc3Cl)ncc1CC2
< 600 nM | CCC(N)(C#Cc1ccc(Cl)c(-c2ncc3c(n2)-c2sc(NC(C)=O)nc2CC3)c1)CC
< 600 nM | CC(=O)Nc1nc2c(s1)-c1nc(-c3cc(C#CC4CCN(C(C)=O)CC4)ccc3Cl)ncc1CC2
< 600 nM | CC(=O)Nc1nc2c(s1)-c1nc(-c3cc(C#CCCN(C)C)ccc3Cl)ncc1CC2
< 600 nM | CC(=O)Nc1nc2c(s1)-c1nc(-c3cc(C#CCN4CCN(C)C(=O)C4)ccc3Cl)ncc1CC2

IC50 | SMILES
< 600 nM | CC(=O)Nc1nc2c(s1)-c1nc(-c3cc(C#CC4CCN(C(=O)NC(C)C)CC4)ccc3Cl)ncc1CC2
< 600 nM | CC(=O)Nc1nc2c(s1)-c1nc(-c3cc(C#CCNC(=O)CCC(C)C)ccc3Cl)ncc1CC2
< 600 nM | CC(=O)Nc1nc2c(s1)-c1nc(-c3cc(C#CCNC(=O)CCC4CCCC4)ccc3Cl)ncc1CC2
< 600 nM | CNC(=O)Nc1nc2c(s1)-c1nc(-c3cc(C#CC4(OC)CCN(C)CC4)ccc3Cl)ncc1CC2
< 600 nM | CC(=O)Nc1nc2c(s1)-c1nc(-c3cc(C#CCN(C)C(C)=O)ccc3Cl)ncc1CC2
< 600 nM | CC(=O)Nc1nc2c(s1)-c1nc(-c3cc(C#CCNCC(C)C)ccc3Cl)ncc1CC2
< 600 nM | CC(=O)Nc1nc2c(s1)-c1nc(-c3cc(C#CC4CCN(C(C)C)CC4)ccc3Cl)ncc1CC2
< 600 nM | CC(=O)NCC#Cc1ccc(Cl)c(-c2ncc3c(n2)-c2sc(NC(C)=O)nc2CC3)c1
< 600 nM | CC(=O)Nc1nc2c(s1)-c1nc(-c3cc(C#CCNC(=O)NC(C)(C)C)ccc3Cl)ncc1CC2
< 600 nM | CC(=O)Nc1nc2c(s1)-c1nc(-c3cc(C#Cc4cncn4C)ccc3Cl)ncc1CC2
< 600 nM | CC(=O)Nc1nc2c(s1)-c1nc(-c3cc(C#CCCCNCC(C)C)ccc3Cl)ncc1CC2
< 600 nM | CC(=O)Nc1nc2c(s1)-c1nc(-c3cc(C#CCN4CCS(=O)(=O)CC4)ccc3Cl)ncc1CC2
< 600 nM | CC(=O)Nc1nc2c(s1)-c1nc(-c3cc(C#CCNS(=O)(=O)Cc4ccccc4)ccc3Cl)ncc1CC2
< 600 nM | CC(=O)Nc1nc2c(s1)-c1nc(-c3cc(C#CCNC(=O)CN(C)C)ccc3Cl)ncc1CC2
< 600 nM | CC(=O)Nc1nc2c(s1)-c1nc(-c3cc(C#CC4(O)CCC(C)(C)CC4)ccc3Cl)ncc1CC2
< 600 nM | COC1(C#Cc2ccc(Cl)c(-c3ncc4c(n3)-c3sc(NC(C)=O)nc3CC4)c2)CCN(C)CC1
< 600 nM | CC(=O)Nc1nc2c(s1)-c1nc(-c3cc(C#CCNC(=O)N4CCCC4)ccc3Cl)ncc1CC2
< 600 nM | COC1CCN(S(=O)(=O)NCC#Cc2ccc(Cl)c(-c3ncc4c(n3)-c3sc(NC(C)=O)nc3CC4)c2)CC1
